{"source": "patent US12350708B2", "about": "“Molecular coatings and methods of making and using the same” (Glisten LLC, priority 2019, dated 2025)", "assay": "water contact angle testing of diamond surfaces", "type": "physicochemical", "conditions": "diamond surface, Example 11, FIGS. 20A-20D; uncoated diamond approximately 65°", "from_the_text": "In some embodiments, water contact angle goniometry can be used to probe the surface properties and performance of the functionalized gemstones (e.g., of the diamond surface, of the surface after the anchor molecule is bound, and/or of the surface after the host molecule is bound forming an inclusion complex). In some embodiments, comparisons of water contact angle can be employed to analytically determine the specific coverage of adsorbed species pertaining to the anchor and to the host/guest complex. In some embodiments, water contact angle can be used to determine the durability of the gemstone coating by performing measurements at various stages of time after normal use after the host/guest inclusion complexes are formed. […]\n(§1) Self-assembly of the β-cyclodextrin is analyzed with water contact angle. Angles will decrease according to the quantity of cyclodextrin residing on the substrate. The change in the refractive index of the surface after molecular coating is determined using optical ellipsometry. […]\nas §1"}
{"molecule": "OC[C@H]1O[C@@H]2O[C@H]3[C@H](O)[C@@H](O)[C@@H](O[C@H]4[C@H](O)[C@@H](O)[C@@H](O[C@H]5[C@H](O)[C@@H](O)[C@@H](O[C@H]6[C@H](O)[C@@H](O)[C@@H](O[C@H]7[C@H](O)[C@@H](O)[C@@H](O[C@H]8[C@H](O)[C@@H](O)[C@@H](O[C@H]1[C@H](O)[C@H]2O)O[C@@H]8CO)O[C@@H]7CO)O[C@@H]6CO)O[C@@H]5CO)O[C@@H]4CO)O[C@@H]3CO", "note": "[b-cyclodextrin, β-cyclodextrin]", "values": [{"measurement": "contact angle", "value": 61, "unit": "°"}]}
